Experimental data: patent publication US12514938B2, “Fibroblast activation protein targeting peptides” (PERSPECTIVE THERAPEUTICS, INC., priority 2023, dated 2026)
*1 amine or outer side, *2 acyl side, *3 side chain or, on linkers, in order; H or OH if unused. Where a SMILES comes first, the peptide text is derived from it. Bridges are numbered along the chain shown (N, C = ends). [ ]: non-standard residue; d: D form. The star is where a group is joined. X2 = NC(=O)CN1CCN(CC(=O)O)CCN(CC(=O)NCCOCCOCCC(=O)NCCSCc2cc(C[*:1])cc(C[*:2])c2)CCN(CC(=O)O)CC1; X1 = NC(=O)CN1CCN(CC(=O)O)CCN(CC(=O)*)CCN(CC(=O)O)CC1; NOTA = O=C(O)CN1CCN(CC(=O)O)CCN(CC(=O)*)CC1; 1Nal = N[C@@H](Cc1cccc2ccccc12)C(=O)O; oXylylene = c1ccc(C[*:2])c(C[*:1])c1; Bta = N[C@@H](Cc1csc2ccccc12)C(=O)O; 3Pal = N[C@@H](Cc1cccnc1)C(=O)O; PEG4 = NCCOCCOCCOCCOCCC(=O)O; 12Ado = NCCCCCCCCCCCC(=O)O; PEG3 = NCCOCCOCCOCCC(=O)O; PEG2 = NCCOCCOCCC(=O)O; Butyryl = CCCC(=O)*; PEG1 = NCCOCCC(=O)O; Ahx = NCCCCCC(=O)O

Target: T1, Human Fibroblast Activation Protein (FAP) (Homo sapiens, UniProt Q12884)
T1 sequence (Q12884 1-760): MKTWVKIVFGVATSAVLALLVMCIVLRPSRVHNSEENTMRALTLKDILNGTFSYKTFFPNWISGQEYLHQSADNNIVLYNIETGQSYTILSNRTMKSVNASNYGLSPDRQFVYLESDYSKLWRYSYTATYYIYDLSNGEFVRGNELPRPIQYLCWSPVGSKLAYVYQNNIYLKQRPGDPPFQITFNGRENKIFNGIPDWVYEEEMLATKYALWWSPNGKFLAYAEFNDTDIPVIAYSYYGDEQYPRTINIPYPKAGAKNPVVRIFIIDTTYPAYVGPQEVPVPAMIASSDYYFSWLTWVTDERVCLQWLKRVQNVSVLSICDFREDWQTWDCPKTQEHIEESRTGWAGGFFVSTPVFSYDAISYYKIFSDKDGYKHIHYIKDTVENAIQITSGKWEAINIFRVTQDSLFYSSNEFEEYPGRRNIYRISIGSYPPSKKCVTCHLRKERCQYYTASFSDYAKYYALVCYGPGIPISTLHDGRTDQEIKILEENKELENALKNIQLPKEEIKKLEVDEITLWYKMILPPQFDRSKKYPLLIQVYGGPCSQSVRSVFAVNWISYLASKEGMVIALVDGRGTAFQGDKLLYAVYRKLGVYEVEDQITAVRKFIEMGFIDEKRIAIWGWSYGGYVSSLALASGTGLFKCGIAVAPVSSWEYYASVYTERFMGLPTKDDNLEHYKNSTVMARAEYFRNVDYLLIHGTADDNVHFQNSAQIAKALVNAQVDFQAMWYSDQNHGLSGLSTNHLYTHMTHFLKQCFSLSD
Test: Enzyme inhibition assay against human FAP (substrate Z-GP-AMC), Example 1
Type: biochemical
Conditions: human FAP 5 ng/well, 50 μM Z-GP-AMC; Ki from IC50 by Cheng-Prusoff
Method: Binding Affinity Against Human Fibroblast Activation Protein (FAP)
An enzyme inhibition assay was performed to determine IC50 values and then the Cheng-Prusoff equation used to calculate the Ki given a known Km of the substrate Z-GP-AMC for FAP. To perform the assay, FAP (5 ng/well) and the test peptide at varying concentrations (i.e. 10^−6 to 10^−12) were incubated in a black 96-well plate for 10 minutes at RT on a shaker plate. Then, the substrate Z-GP-AMC was added to give a final concentration of 50 μM. The total reaction volume per well was 100 μL The reaction was allowed to incubate at RT on a shaker plate for 1 hour protected from light, and then fluorescence read with a BioTek Synergy LX plate reader at an ex/em (360/40 and 460/40). Experiments were performed in at least duplicate, and controls of buffer only, buffer and FAP enzyme, and buffer with substrate and FAP enzyme only were included for comparison. The buffer used for the assay was 50 mM Tris-HCl, 1M NaCl, and 1 mg/mL BSA, pH=7.5. Data was plotted in GraphPad Prism and non-linear regression used to calculate IC50 values. The compounds tested and Ki values of each were as follows: […]

Ki | SMILES
0.3 nM | C[C@@H](O)[C@@H]1NC(=O)[C@@H](NC(=O)[C@H](CO)NC(=O)CCOCCOCCNC(=O)CN2CCN(CC(=O)O)CCN(CC(N)=O)CCN(CC(=O)O)CC2)CSCc2ccccc2CSC[C@@H](C(N)=O)NC(=O)[C@H](Cc2c[nH]c3ccccc23)NC(=O)[C@H](Cc2c[nH]c3ccccc23)NC(=O)[C@H](CCC(N)=O)NC(=O)[C@H](CCC(=O)O)NC(=O)[C@H](Cc2csc3ccccc23)NC(=O)[C@@H]2CCCN2C1=O [VMT-FAP-2-61, PCS-PEG2-S-[C(oXdB)TPBtaEQWWC]-NH2] ({X1-PEG2}-SCTP[Bta]EQWWC-NH2; linker 2-10 via oXylylene)
0.08 nM | C[C@@H](O)[C@@H]1NC(=O)[C@@H](NC(=O)CCOCCNC(=O)CN2CCN(CC(=O)O)CCN(CC(N)=O)CCN(CC(=O)O)CC2)CSCc2ccccc2CSC[C@@H](C(N)=O)NC(=O)[C@H](Cc2c[nH]c3ccccc23)NC(=O)[C@H](Cc2c[nH]c3ccccc23)NC(=O)[C@H](CCC(N)=O)NC(=O)[C@H](CCC(=O)O)NC(=O)[C@H](Cc2c[nH]c3ccccc23)NC(=O)[C@@H]2CCCN2C1=O [VMT-FAP-2-67, PSC-PEG1-[C(oXdB)TPWEQWWC]-NH2] ({X1-PEG1}-CTPWEQWWC-NH2; linker 1-9 via oXylylene)
0.64 nM | C[C@@H](O)[C@@H]1NC(=O)[C@@H](NC(=O)CCOCCOCCOCCNC(=O)CN2CCN(CC(=O)O)CCN(CC(N)=O)CCN(CC(=O)O)CC2)CSCc2ccccc2CSC[C@@H](C(N)=O)NC(=O)[C@H](Cc2c[nH]c3ccccc23)NC(=O)[C@H](Cc2c[nH]c3ccccc23)NC(=O)[C@H](CCC(N)=O)NC(=O)[C@H](CCC(=O)O)NC(=O)[C@H](Cc2c[nH]c3ccccc23)NC(=O)[C@@H]2CCCN2C1=O [VMT-FAP-2-68, PSC-PEG3-[C(oXdB)TPWEQWWC]-NH2] ({X1-PEG3}-CTPWEQWWC-NH2; linker 1-9 via oXylylene)
0.01 nM | C[C@@H](O)[C@@H]1NC(=O)[C@@H](NC(=O)CCOCCOCCOCCOCCNC(=O)CN2CCN(CC(=O)O)CCN(CC(N)=O)CCN(CC(=O)O)CC2)CSCc2ccccc2CSC[C@@H](C(N)=O)NC(=O)[C@H](Cc2c[nH]c3ccccc23)NC(=O)[C@H](Cc2c[nH]c3ccccc23)NC(=O)[C@H](CCC(N)=O)NC(=O)[C@H](CCC(=O)O)NC(=O)[C@H](Cc2c[nH]c3ccccc23)NC(=O)[C@@H]2CCCN2C1=O [VMT-FAP-2-69, PSC-PEG4-[C(oXdB)TPWEQWWC]-NH2] ({X1-PEG4}-CTPWEQWWC-NH2; linker 1-9 via oXylylene)
0.64 nM | C[C@@H](O)[C@@H]1NC(=O)[C@@H](NC(=O)CCCCCNC(=O)CN2CCN(CC(=O)O)CCN(CC(N)=O)CCN(CC(=O)O)CC2)CSCc2ccccc2CSC[C@@H](C(N)=O)NC(=O)[C@H](Cc2c[nH]c3ccccc23)NC(=O)[C@H](Cc2c[nH]c3ccccc23)NC(=O)[C@H](CCC(N)=O)NC(=O)[C@H](CCC(=O)O)NC(=O)[C@H](Cc2c[nH]c3ccccc23)NC(=O)[C@@H]2CCCN2C1=O [VMT-FAP-2-70, PSC-6AHA-[C(oXdB)TPWEQWWC]-NH2] ({X1-Ahx}-CTPWEQWWC-NH2; linker 1-9 via oXylylene)
1.26 nM | C[C@@H](O)[C@@H]1NC(=O)[C@@H](NC(=O)CCCCCNC(=O)CN2CCN(CC(=O)O)CCN(CC(N)=O)CCN(CC(=O)O)CC2)CSCc2ccccc2CSC[C@@H](C(=O)O)NC(=O)[C@H](Cc2c[nH]c3ccccc23)NC(=O)[C@H](Cc2c[nH]c3ccccc23)NC(=O)[C@H](CCC(N)=O)NC(=O)[C@H](CCC(=O)O)NC(=O)[C@H](Cc2c[nH]c3ccccc23)NC(=O)[C@@H]2CCCN2C1=O [VMT-FAP-2-75, PSC-6AHA-[C(oXdB)TPWEQWWC]-COOH] ({X1-Ahx}-CTPWEQWWC-OH; linker 1-9 via oXylylene)
31.4 nM | C[C@@H](O)[C@@H]1NC(=O)[C@@H](NC(=O)CCOCCOCCNC(=O)CN2CCN(CC(=O)O)CCN(CC(N)=O)CCN(CC(=O)O)CC2)CSCc2ccccc2CSC[C@@H](C(=O)O)NC(=O)[C@H](Cc2c[nH]c3ccccc23)NC(=O)[C@H](Cc2c[nH]c3ccccc23)NC(=O)[C@H](CCC(N)=O)NC(=O)[C@H](CCC(=O)O)NC(=O)[C@H](Cc2c[nH]c3ccccc23)NC(=O)[C@@H]2CCCN2C1=O [VMT-FAP-2-76, PSC-PEG2-[C(oXdB)TPWEQWWC]-COOH] ({X1-PEG2}-CTPWEQWWC-OH; linker 1-9 via oXylylene)
0.01 nM | C[C@@H](O)[C@@H]1NC(=O)[C@@H](NC(=O)CCOCCOCCNC(=O)CN2CCN(CC(=O)O)CCN(CC(=O)O)CC2)CSCc2ccccc2CSC[C@@H](C(N)=O)NC(=O)[C@H](Cc2c[nH]c3ccccc23)NC(=O)[C@H](Cc2c[nH]c3ccccc23)NC(=O)[C@H](CCC(N)=O)NC(=O)[C@H](CCC(=O)O)NC(=O)[C@H](Cc2c[nH]c3ccccc23)NC(=O)[C@@H]2CCCN2C1=O [VMT-FAP-2-78, NOTA-PEG2-[C(oXdB)TPWEQWWC]-NH2] ({NOTA-PEG2}-CTPWEQWWC-NH2; linker 1-9 via oXylylene)

The remaining lines, values behind:

SMILES | Ki
CC(=O)N[C@@H](CO)C(=O)N[C@H]1CSCc2cc(CSCCNC(=O)CCOCCOCCNC(=O)CN3CCN(CC(=O)O)CCN(CC(N)=O)CCN(CC(=O)O)CC3)cc(c2)CSC[C@@H](C(N)=O)NC(=O)[C@H](Cc2c[nH]c3ccccc23)NC(=O)[C@H](Cc2c[nH]c3ccccc23)NC(=O)[C@H](CCC(N)=O)NC(=O)[C@H](CCC(=O)O)NC(=O)[C@H](Cc2c[nH]c3ccccc23)NC(=O)[C@@H]2CCCN2C(=O)[C@H]([C@@H](C)O)NC1=O [VMT-FAP-2-55, Ac-S-[C(mXtB(CA-PEG2-PSC))TPWEQWWC]-NH2] (Ac-SCTPWEQWWC-NH2; linker 2-10 via X2) | 1.12 nM
CCCC(=O)N[C@H]1CSCc2cc(CSCCNC(=O)CCOCCOCCNC(=O)CN3CCN(CC(=O)O)CCN(CC(N)=O)CCN(CC(=O)O)CC3)cc(c2)CSC[C@@H](C(N)=O)NC(=O)[C@H](Cc2c[nH]c3ccccc23)NC(=O)[C@H](Cc2c[nH]c3ccccc23)NC(=O)[C@H](CCC(N)=O)NC(=O)[C@H](CCC(=O)O)NC(=O)[C@H](Cc2c[nH]c3ccccc23)NC(=O)[C@@H]2CCCN2C(=O)[C@H]([C@@H](C)O)NC1=O [VMT-FAP-2-57, But-[C(mXtB(CA-PEG2-PSC))TPWEQWWC]-NH2] (Butyryl-CTPWEQWWC-NH2; linker 1-9 via X2) | 0.71 nM
C[C@@H](O)[C@@H]1NC(=O)[C@@H](NC(=O)[C@H](CO)NC(=O)CCOCCOCCNC(=O)CN2CCN(CC(=O)O)CCN(CC(N)=O)CCN(CC(=O)O)CC2)CSCc2ccccc2CSC[C@@H](C(N)=O)NC(=O)[C@H](Cc2c[nH]c3ccccc23)NC(=O)[C@H](Cc2c[nH]c3ccccc23)NC(=O)[C@H](CCC(N)=O)NC(=O)[C@H](CCC(=O)O)NC(=O)[C@H](Cc2cccc3ccccc23)NC(=O)[C@@H]2CCCN2C1=O [VMT-FAP-2-60, PSC-PEG2-S-[C(oXdB)TP1-NalEQWWC]-NH2] ({X1-PEG2}-SCTP[1Nal]EQWWC-NH2; linker 2-10 via oXylylene) | 0.48 nM
C[C@@H](O)[C@@H]1NC(=O)[C@@H](NC(=O)[C@H](CO)NC(=O)CCOCCOCCNC(=O)CN2CCN(CC(=O)O)CCN(CC(N)=O)CCN(CC(=O)O)CC2)CSCc2ccccc2CSC[C@@H](C(N)=O)NC(=O)[C@H](Cc2c[nH]c3ccccc23)NC(=O)[C@H](Cc2c[nH]c3ccccc23)NC(=O)[C@H](CCC(N)=O)NC(=O)[C@H](CCC(=O)O)NC(=O)[C@H](Cc2cccnc2)NC(=O)[C@@H]2CCCN2C1=O [VMT-FAP-2-62, PCS-PEG2-S-[C(oXdB)TP3-PalEQWWC]-NH2] ({X1-PEG2}-SCTP[3Pal]EQWWC-NH2; linker 2-10 via oXylylene) | 0.61 nM
C[C@@H](O)[C@@H]1NC(=O)[C@@H](NC(=O)CCCCCCCCCCCNC(=O)CN2CCN(CC(=O)O)CCN(CC(N)=O)CCN(CC(=O)O)CC2)CSCc2ccccc2CSC[C@@H](C(N)=O)NC(=O)[C@H](Cc2c[nH]c3ccccc23)NC(=O)[C@H](Cc2c[nH]c3ccccc23)NC(=O)[C@H](CCC(N)=O)NC(=O)[C@H](CCC(=O)O)NC(=O)[C@H](Cc2c[nH]c3ccccc23)NC(=O)[C@@H]2CCCN2C1=O [VMT-FAP-2-74, PSC-12-Ado-[C(oXdB)TPWEQWWC]-NH2] ({X1-12Ado}-CTPWEQWWC-NH2; linker 1-9 via oXylylene) | 6.66 nM
